According to US5614627A, “Quinazoline compounds” (Eisai Co., Ltd., priority 1993, dated 1997):
Where a name gives a salt, the structure may show the parent alone.

Biological target: T1, calmodulin-dependent cGMP-phosphodiesterase (CaM-PDE) (Sus scrofa, UniProt A0A5G2RLV3)
T1 construct: prepared from swine aorta; from tissue; host or cells: swine aorta
Experiment: enzyme-inhibitory activity with calmodulin-dependent cGMP-phosphodiesterase (CaM-PDE) obtained from swine aorta
Format: biochemical
Details: 1 μM cGMP as substrate, 1 mM Ca++, calmodulin 250 U/ml, DMSO 4% or below
Description: Study on enzyme-inhibitory activity with calmodulin-dependent cGMP-phosphodiesterase obtained from swine aorta The enzyme activity of calmodulin-dependent cGMP-phosphodiesterase (hereinafter referred to CaM-PDE) prepared from swine aorta was determined according to the method of Thompson et al. The emzyme activity was determined in the presence of 1 mM of calcium ion (Ca^++) and calmodulin (250 U/ml) by the use of 1 μM of cGMP as the substrate. The compound of the present invention was dissolved in DMSO and added to the reaction liquid. The final concentration of DMSO in the reaction solution was adjusted to 4% or below. The preparation of the CaM-PDE was effected according to the method [[…]. and Saito, I., Isolation of cyclic nucleotide phosphodiesterase isozymes from pig aorta, Biochem. Pharmacol. in press] by the use of swine aorta. The CaM-PDE inhibitory activity of the compounds of the present invention as determined by the above method are given in Table 1.

Compound: COc1cc2c(NCCCC(=O)O)ncnc2c(OC)c1OC [Example 2, 4-(3-Carboxypropyl)amino-6,7,8-trimethoxyquinazoline]
- IC50: 480 nM

Compound: CCOC(=O)CCCCCNc1ncnc2c(OC)c(OC)c(OC)cc12 [Example 3, 4-(5-Ethoxycarbonylpentyl)amino-6,7,8-trimethoxyquinazoline]
- IC50: 2350 nM

Compound: CCOC(=O)CCNc1ncnc2c(OC)c(OC)c(OC)cc12 [Example 7, 4-(2-Ethoxycarbonylethyl)amino-6,7,8-trimethoxyquinazoline]
- IC50: 4620 nM

Compound: O=C(O)CCCCCNc1ncnc2ccc(Cl)cc12 [Example 10, 4-(5-Carboxypentyl)amino-6-chloroquinazolne]
- IC50: 53900 nM

Compound: COc1cc2c(NCCCCCCC(=O)O)ncnc2c(OC)c1OC [Example 12, 4-(6-Carboxyhexyl)amino-6,7,8-trimethoxyquinazoline]
- IC50: 3500 nM

Compound: COc1cc2c(NCCC(=O)O)ncnc2c(OC)c1OC [Example 13, 4-(2-Carboxyethyl)amino-6,7,8-trimethoxyquinazoline]
- IC50: 2370 nM

Compound: COc1cc2c(NCCCCC(=O)O)ncnc2c(OC)c1OC [Example 14, 4-(4-Carboxybutyl)amino-6,7,8-trimethoxyuinazoline]
- IC50: 1290 nM

Compound: COc1cc2c(NCCCCCCCC(=O)O)ncnc2c(OC)c1OC [Example 15, 4-(7-Carboxyheptyl)amino-6,7,8,-trimethoxyquinazoline]
- IC50: 3620 nM

Compound: COc1cc2c(NCCCCCC(=O)O)ncnc2c(OC)c1OC [Example 16, 4-(5-Carboxypentyl)amino-6,7,8-trimethoxyquinazoline]
- IC50: 1650 nM

Compound: COc1cc2c(N(C)CCCC(=O)O)ncnc2c(OC)c1OC [Example 18, 4-[N-(3-Carboxypropyl)-N-methylaminol-]6,7,8, -trimethoxyquinazoline]
- IC50: 730 nM

Compound: COc1cc2c(N3CCC(C(=O)O)CC3)ncnc2c(OC)c1OC [Example 20, 4-(4-Carboxypiperidino)-6,7,8-trimethoxyquinazoline]
- IC50: 420 nM

Compound: COc1cc2c(NCCCCC#N)ncnc2c(OC)c1OC [Example 32, 4-(4-Cyanobutyl)amino-6,7,8-trimethoxyquinzaoline]
- IC50: 6400 nM

Compound: COc1cc2c(NCCCO)ncnc2c(OC)c1OC [Example 35, 4-(3-Hydroxypropyl)amino-6,7.8-trimethoxyquinazoline]
- IC50: 1900 nM

Compound: Clc1ccc2ncnc(NCCCn3ccnc3)c2c1 [Example 38, 6-Chloro-4-[3-(imidazol-1-yl)propyl]aminoquinazoline]
- IC50: 7900 nM

Compound: CCCNc1ncnc2c(OC)c(OC)c(OC)cc12 [Example 40, 4-Propylamino-6,7-trimethoxyquinazoline]
- IC50: 170 nM

Compound: CCN(CC)c1ncnc2c(OC)c(OC)c(OC)cc12 [Example 41, 4-Diethylamino-6,7,8-trimethoxyquinazoline hydrochloride]
- IC50: 300 nM

Compound: CCN(CC)c1ncnc2c(OC)cc(OC)cc12 [Example 43, 4-Diethylamino-6,8-dimethoxyquinazoline hydrochloride]
- IC50: 740 nM

Compound: CCN(CC)c1nc(Cl)nc2c(OC)c(OC)c(OC)cc12 [Example 51, 2-Chloro-4-diethylamino-6,7,8-trimethoxyquinazoline]
- IC50: 4300 nM

Compound: COc1cc2c(N3CCC(C(=O)c4ccc(F)cc4)CC3)ncnc2c(OC)c1OC [Example 57, 4-[4-(4-Fluorobenzoyl)piperidino]-6,7,8-trimethoxyquinazoline]
- IC50: 11600 nM

Compound: COc1cc2c(N3CCC(C(O)c4ccc(F)cc4)CC3)ncnc2c(OC)c1OC (stereo not drawn) [Example 58, 4-[4-(4-Fluoro-α-hydroxybenzyl)piperidino]-6,7,8-trimethoxyquinazolin]
- IC50: 2800 nM

Compound: COc1cc2c(N3CCC(=O)CC3)ncnc2c(OC)c1OC [Example 61, 4-(4-Oxopiperidino)-6,7,8-trimethoxyquinazoline]
- IC50: 1100 nM

Compound: COc1cc2c(N3CCC(O)CC3)ncnc2c(OC)c1OC [Example 62, 4-(4-Hydroxypiperidino)-6,7,8-trimethoxyquinazoline]
- IC50: 740 nM

Compound: COc1cc2c(N3CCN(c4ncccn4)CC3)ncnc2c(OC)c1OC [Example 65, 4-[4-(2-Pyrimidyl)piperazin-1-yl]-6,7,8-trimethoxyquinazoline]
- IC50: 10700 nM

Compound: COc1cc2c(N3CCOCC3)ncnc2c(OC)c1OC [Example 68, 4-Morpholino-6,7,8-trimethoxyquinazoline hydrochloride]
- IC50: 4000 nM
